{"source": "paper PMC10817943", "about": "(Nature Communications, 2024)", "key": {"[1]": {"tested_on": "M. smegmatis mc^2155 reporter strain harboring PradA-LUX", "conditions": "RadA reporter, ciprofloxacin 0.06 µg/mL, MPA 0.125 µg/mL"}, "[2]": {"tested_on": "M. smegmatis mc^2155 reporter strain harboring PrecA-LUX", "conditions": "RecA reporter, ciprofloxacin 0.06 µg/mL, MPA 0.125 µg/mL"}}, "note": "Where two headings read alike, the source gives them in different places."}
{"compound": "O=C(O)c1cn(C2CC2)c2cc(N3CCNCC3)c(F)cc2c1=O", "note": "[ciprofloxacin, Ciprofloxacin, reference compound]", "values": [{"measurement": "luminescence induction", "setting": "[1]; elapsed time 0:00:00", "value": 123, "unit": "RLU"}, {"measurement": "luminescence induction", "setting": "[1]; elapsed time 3:00:00", "value": 1612, "unit": "RLU"}, {"measurement": "luminescence induction", "setting": "[1]; elapsed time 6:00:00", "value": 2073, "unit": "RLU"}, {"measurement": "luminescence induction", "setting": "[1]; elapsed time 9:00:00", "value": 2126, "unit": "RLU"}, {"measurement": "luminescence induction", "setting": "[1]; elapsed time 12:00:00", "value": 1993, "unit": "RLU"}, {"measurement": "luminescence induction", "setting": "[1]; elapsed time 15:00:00", "value": 2134, "unit": "RLU"}, {"measurement": "luminescence induction", "setting": "[1]; elapsed time 18:00:00", "value": 2689, "unit": "RLU"}, {"measurement": "luminescence induction", "setting": "[1]; elapsed time 21:00:00", "value": 4077, "unit": "RLU"}, {"measurement": "luminescence induction", "setting": "[1]; elapsed time 24:00:00", "value": 6491, "unit": "RLU"}, {"measurement": "luminescence induction", "setting": "[1]; elapsed time 27:00:00", "value": 10903, "unit": "RLU"}, {"measurement": "luminescence induction", "setting": "[1]; elapsed time 30:00:00", "value": 19150, "unit": "RLU"}, {"measurement": "luminescence induction", "setting": "[1]; elapsed time 33:00:00", "value": 33571, "unit": "RLU"}, {"measurement": "luminescence induction", "setting": "[1]; elapsed time 36:00:00", "value": 56395, "unit": "RLU"}, {"measurement": "luminescence induction", "setting": "[1]; elapsed time 39:00:00", "value": 67383, "unit": "RLU"}, {"measurement": "luminescence induction", "setting": "[1]; elapsed time 42:00:00", "value": 103238, "unit": "RLU"}, {"measurement": "luminescence induction", "setting": "[1]; elapsed time 45:00:00", "value": 85422, "unit": "RLU"}, {"measurement": "luminescence induction", "setting": "[1]; elapsed time 48:00:00", "value": 47660, "unit": "RLU"}, {"measurement": "luminescence induction", "setting": "[1]; elapsed time 51:00:00", "value": 21645, "unit": "RLU"}, {"measurement": "luminescence induction", "setting": "[1]; elapsed time 54:00:00", "value": 9619, "unit": "RLU"}, {"measurement": "luminescence induction", "setting": "[1]; elapsed time 57:00:00", "value": 4843, "unit": "RLU"}, {"measurement": "luminescence induction", "setting": "[1]; elapsed time 60:00:00", "value": 2928, "unit": "RLU"}, {"measurement": "luminescence induction", "setting": "[1]; elapsed time 63:00:00", "value": 1993, "unit": "RLU"}, {"measurement": "luminescence induction", "setting": "[1]; elapsed time 66:00:00", "value": 1543, "unit": "RLU"}, {"measurement": "luminescence induction", "setting": "[1]; elapsed time 69:00:00", "value": 1199, "unit": "RLU"}, {"measurement": "luminescence induction", "setting": "[1]; elapsed time 72:00:00", "value": 998, "unit": "RLU"}, {"measurement": "luminescence induction", "setting": "[1]; elapsed time 75:00:00", "value": 761, "unit": "RLU"}, {"measurement": "luminescence induction", "setting": "[1]; elapsed time 78:00:00", "value": 636, "unit": "RLU"}, {"measurement": "luminescence induction", "setting": "[1]; elapsed time 81:00:00", "value": 547, "unit": "RLU"}, {"measurement": "luminescence induction", "setting": "[1]; elapsed time 84:00:00", "value": 460, "unit": "RLU"}, {"measurement": "luminescence induction", "setting": "[1]; elapsed time 87:00:00", "value": 387, "unit": "RLU"}, {"measurement": "luminescence induction", "setting": "[2]; elapsed time 0:00:00", "value": 1225, "unit": "RLU"}, {"measurement": "luminescence induction", "setting": "[2]; elapsed time 3:00:00", "value": 9623, "unit": "RLU"}, {"measurement": "luminescence induction", "setting": "[2]; elapsed time 6:00:00", "value": 25614, "unit": "RLU"}, {"measurement": "luminescence induction", "setting": "[2]; elapsed time 9:00:00", "value": 37445, "unit": "RLU"}, {"measurement": "luminescence induction", "setting": "[2]; elapsed time 12:00:00", "value": 44651, "unit": "RLU"}, {"measurement": "luminescence induction", "setting": "[2]; elapsed time 15:00:00", "value": 48781, "unit": "RLU"}, {"measurement": "luminescence induction", "setting": "[2]; elapsed time 18:00:00", "value": 52120, "unit": "RLU"}, {"measurement": "luminescence induction", "setting": "[2]; elapsed time 21:00:00", "value": 57807, "unit": "RLU"}, {"measurement": "luminescence induction", "setting": "[2]; elapsed time 24:00:00", "value": 68911, "unit": "RLU"}, {"measurement": "luminescence induction", "setting": "[2]; elapsed time 27:00:00", "value": 89348, "unit": "RLU"}, {"measurement": "luminescence induction", "setting": "[2]; elapsed time 30:00:00", "value": 122834, "unit": "RLU"}, {"measurement": "luminescence induction", "setting": "[2]; elapsed time 33:00:00", "value": 178492, "unit": "RLU"}, {"measurement": "luminescence induction", "setting": "[2]; elapsed time 36:00:00", "value": 273065, "unit": "RLU"}, {"measurement": "luminescence induction", "setting": "[2]; elapsed time 39:00:00", "value": 424870, "unit": "RLU"}, {"measurement": "luminescence induction", "setting": "[2]; elapsed time 42:00:00", "value": 486228, "unit": "RLU"}, {"measurement": "luminescence induction", "setting": "[2]; elapsed time 45:00:00", "value": 462582, "unit": "RLU"}, {"measurement": "luminescence induction", "setting": "[2]; elapsed time 48:00:00", "value": 485841, "unit": "RLU"}, {"measurement": "luminescence induction", "setting": "[2]; elapsed time 51:00:00", "value": 408474, "unit": "RLU"}, {"measurement": "luminescence induction", "setting": "[2]; elapsed time 54:00:00", "value": 246511, "unit": "RLU"}, {"measurement": "luminescence induction", "setting": "[2]; elapsed time 57:00:00", "value": 125742, "unit": "RLU"}, {"measurement": "luminescence induction", "setting": "[2]; elapsed time 60:00:00", "value": 64490, "unit": "RLU"}, {"measurement": "luminescence induction", "setting": "[2]; elapsed time 63:00:00", "value": 37695, "unit": "RLU"}, {"measurement": "luminescence induction", "setting": "[2]; elapsed time 66:00:00", "value": 23762, "unit": "RLU"}, {"measurement": "luminescence induction", "setting": "[2]; elapsed time 69:00:00", "value": 17429, "unit": "RLU"}, {"measurement": "luminescence induction", "setting": "[2]; elapsed time 72:00:00", "value": 13645, "unit": "RLU"}, {"measurement": "luminescence induction", "setting": "[2]; elapsed time 75:00:00", "value": 10589, "unit": "RLU"}, {"measurement": "luminescence induction", "setting": "[2]; elapsed time 78:00:00", "value": 8697, "unit": "RLU"}, {"measurement": "luminescence induction", "setting": "[2]; elapsed time 81:00:00", "value": 7129, "unit": "RLU"}, {"measurement": "luminescence induction", "setting": "[2]; elapsed time 84:00:00", "value": 6189, "unit": "RLU"}, {"measurement": "luminescence induction", "setting": "[2]; elapsed time 87:00:00", "value": 5163, "unit": "RLU"}]}
